Measured values taken from patent US20070003565A1 (priority 2003, published 2007).
Converted amounts (≈) assume the structure as drawn. Residues, ends and D or L forms follow the SMILES beside them.

Tests used:
No.04 coronavirus [1] = tested on: No.04 coronavirus
No.04 coronavirus [2] = assay: microbe, parasite or virus in culture; conditions: Severe acute respiratory syndrome coronavirus
MT-4 cells = assay: Cytotoxicity to MT-4 cells (MTT method); type: cell-based; conditions: 12000 ng/ml to 24 ng/ml, 6 days
Procedure: Then test drugs were added. […] Cell growth was subsequently determined by the MTT method.

For Nc1nc(O)c2ncn(COC(CO)CO)c2n1 [Ganciclovir, ganciclovir], the “treatment index (TI)” value (No.04 coronavirus [1]; CPE method, 293 cells) was 256, the IC50 (No.04 coronavirus [2]; HEK293, read-out: half-inhibitory concentration (IC50)) was 11.7 mg/L (≈ 45.8 µM) and the MIC (No.04 coronavirus [2]; read-out: minimum inhibitory concentration (MIC)) was 23.4 mg/L (≈ 91.8 µM).

For CC[C@H](C)[C@H](NC(=O)[C@@H](NC(=O)[C@@H]1CCCN1C(=O)[C@H](CC(=O)O)NC(=O)[C@H](Cc1c[nH]cn1)NC(=O)[C@@H](NC(=O)[C@@H](N)CCSC)[C@@H](C)O)C(C)C)C(=O)N[C@@H](CO)C(=O)N[C@@H](CC(C)C)C(=O)N1CCC[C@H]1C(=O)N[C@H](C(=O)N[C@H](C(=O)O)[C@@H](C)O)[C@@H](C)O [HAb18G-AP-1] (H-MTHDPVISLPTT-OH), the “cell growth of MT-4 cells (in words)” value (MT-4 cells) was “cell growth was not affected”.

In the case of N=C(N)NCCC[C@H](NC(=O)[C@H](Cc1c[nH]cn1)NC(=O)[C@H](Cc1c[nH]c2ccccc12)NC(=O)[C@H](Cc1c[nH]cn1)NC(=O)[C@H](CCCCN)NC(=O)[C@H](Cc1c[nH]cn1)NC(=O)[C@H](Cc1c[nH]cn1)NC(=O)[C@H](Cc1ccccc1)NC(=O)[C@@H]1CCCN1C(=O)[C@@H](N)Cc1ccc(O)cc1)C(=O)N1CCC[C@H]1C(=O)N[C@@H](CC(N)=O)C(=O)O [HAb18G-AP-6, Tyr Pro Phe His His Lys His Typ His Arg Pro Asn] (H-YPFHHKHWHRPN-OH), the “cell growth of MT-4 cells (in words)” value (MT-4 cells) is reported as “cell growth was not affected”, the “half-inhibitory concentration (IC50)” value (No.04 coronavirus [1]; 24 h) is reported as 31.25 ± 0 mg/L and the “minimum inhibitory concentration (MIC)” value (No.04 coronavirus [1]; 24 h) is reported as 62.25 ± 0 mg/L (≈ 37.6 µM).

CC(C)C[C@H](NC(=O)[C@H](CCCCN)NC(=O)[C@@H](N)Cc1ccc(O)cc1)C(=O)N1CCC[C@H]1C(=O)NCC(=O)N[C@@H](Cc1c[nH]cn1)C(=O)N[C@@H](Cc1c[nH]cn1)C(=O)N[C@@H](Cc1c[nH]cn1)C(=O)N[C@@H](Cc1c[nH]cn1)C(=O)N[C@@H](Cc1ccc(O)cc1)C(=O)N[C@@H](CCCNC(=N)N)C(=O)N1CCC[C@H]1C(=O)O [HAb18G-AP-9] (H-YKLPGHHHHYRP-OH) was tested, and the “cell growth of MT-4 cells (in words)” value (MT-4 cells) was “cell growth was not affected”.
